# Measurements from patent publication US5114972A, “Synthesis and uses of new ascorbic acid derivatives which have anti-oxidant and anti-cancer activities” (priority 1990, dated 1992).
# Experiments:
# mice = assay: Reduction of toxic side-effect of 5-FU by OC-5186 (Experiment 2); assay type: in vivo
# Experimental: (§1) In the Experiment 2, the amount of the oligomer was cut down to 1 mg/kg/day to see whether we could still observe anti-cancer activity.
# solid tumor (EAT cells) = assay: Anti-cancer activity, solid tumor model (EAT cells inoculated subcutaneously); assay type: in vivo, mice; conditions: 5-FU 20 mg/kg/day
# Experimental: (§2) We used two mice models (Tomomatsu, Morita, Nagai, Shiwaku, Ichiki and Yonoki: Acta Med. Univ. Kagoshima. 17:99, 1975), i.e., (a) Ehrlich's ascites tumor (EAT) model and (b) a solid tumor model in which EAT cells were innoculated subcutaneously. In (a), 10^7 tumor cells were injected I.P. in a mouse with the body weight of 20 g. In (b), the same amount of tumor cells were injected subcutaneously in a mouse of similar weight. After 21 days, we measured several parameters: (i) the change of body weight; (ii) average time to their death, from which we measure extension of life span, and (iii) survival rate.
# (§3) In the solid tumor model, we measured the extension of the life span and the survival rate. […] In the Experiment 1, from day 4 until day 13 (for ten days), anti-cancer drugs were administered. […] In the combination therapy, both drugs were administered simultaneously at their respective doses. […] With the 5-FU, they died in an average of 20.3 days. […] In the tumor model, similar tendency was observed.
# as §1
# [1] = tested on: Ehrlich's ascites tumor (EAT); assay: Anti-cancer activity, Ehrlich's ascites tumor (EAT) model; assay type: in vivo, mice; conditions: 5-FU 20 mg/kg/day
# Experimental: as §2
# In the ascites tumor model, an increase of body weight is related to the increase in ascites. When the animal dies, we collect the ascites fluid and measure the number of tumor cells found in the ascites.
# as §3, §1
# [2] = tested on: FCR-3 strain P. falciparum; assay: Growth inhibition of P. falciparum in in vitro culture; assay type: cell-based; conditions: 50 ug/ml, forty-eight hours
# Experimental: The FCR-3 strain P. falciparum was used. Blood-stage parasites were cultured in RPMI-1640 (GIBCO Laboratories, Chagrin Falls, Ohio) in 96 well flat bottomed plates (Costar; Cambridge, Mass.) using the candle jar method described by Jensen and Trager (J. Parasitology 63:883,1977) and modified by Grun and Weidanz (J. Parasitology 73:384, 1987). Parasitemia was estimated on GIEMSA stained films of cultures. For drug administration, desired amounts of chemicals were added to an individual wells of 96 well plates. Forty-eight hours later, parasitemia was estimated and the degree of growth inhibition was determined.
# brain ischemia = assay: Survival rate after global brain ischemia; assay type: in vivo, Sprague-Dawley rats; conditions: 9 mg/kg; OC-5186 injected I.P. thirty minutes prior to ischemia; control 8 out of 8 died within 2 days
# Experimental: Adult, male Sprague-Dawley rats, weighing 300 to 350 grams, were used to prepare global ischemia. Anesthesia was induced and maintained with forane in 70% nitrous oxide-30% oxygen. After trachea was intubated, anesthesia was maintained using a ventilator. Both common carotid arteries were exposed and occluded by microaneurysmal clips. Then 12 to 14 ml of blood was withdrawn from the tail vein to bring the blood pressure to 30 mm Hg, which caused global ischemia. After twenty minutes of ischemia, blood was reinfused, clips were removed to induce recirculation. After twenty minutes of recirculation, the rat was decapitated, the brain was removed in ice-cold saline and then homogenized for TBAR measurement and spin trap measurement. For the measurement of survival rate, the wound was sutured and the animal recovered. The animal was returned to its cage. They were then observed for the survival rate. […] In this experiment, the brain was homogenized in the presence of 50 mM tert-butyl-(alpha)-phenylnitrone and the homogenate was introduced to electron spin resonance spectrophotometer.
# In control experiment, where no drug was introduced, 8 out of 8 animals died within 2 days. […] Ascorbic acid (9 mg/kg) had no effect.
# sickle red blood cells = assay: Formation of irreversibly sickled cells upon sickling-unsickling cycling in vitro; assay type: cell-based; conditions: 10 ug/ml
# From the text: The inventor previously developed the method to produce irreversibly sickled cells (ISC, which are irreversibly denatured sickle cells) by exposing sickle red blood cells to a repeated sickling-unsickling cycling in vitro. He used this system to determine the efficacy of drugs in protecting cell membranes (Ohnishi, Br. J. Haematol. 55:665-671, 1983; Ohnishi et al. Biochim. Biophys. Acta 886:119-129, 1986). […] These heavy cells were collected, the amount measured, and the percentage of production calculated.
# [3] = Anti-oxidant activity and protection from ischemic trauma (summary statement)
# [4] = tested on: lipid peroxidation (TBAR) in rat head/brain homogenate; assay: Inhibition of TBAR production (lipid peroxidation) in ischemic rat brain homogenate, drug added in vitro; assay type: biochemical; conditions: added in vitro before exposure to air (FIG. 3, FIG. 4)
# From the text: (A) When cell membranes are exposed to ischemic or hypoxic insult, lipid peroxidation takes place. The degree of peroxidation can be measured by the production of thiobarbiturate reactive substances (TBAR). We have developed a simple assay method; we decapitate the rat and keep the head under a hypoxic condition for thirty minutes at 37 degrees and then homogenize it, then expose the homogenate to air for sixty minutes and measure the production of TBAR.
# [5] = Superoxide scavenging activity, adenochrome method; assay type: biochemical; conditions: 50 ug/ml each; absorbance at 480 nm (FIG. 1)
# From the text: From the change of the slope, we can estimate the activity of scavenging action.
smiles,measurement,setting,value
"O=c1[nH]cc(F)c(=O)[nH]1 [5-FU, 5-fluorouracil]",survival of chemotherapy / toxicity,mice; administered for 23 days,all animals die if it is administered for 23 days
same,tolerated duration of 5-FU administration without OC-5186,mice; without OC-5186,≤ 10 days
same,Solid tumor weight (on 21 days),"solid tumor (EAT cells); Experiment 1, day 4 to day 13, OC-5186 10 mg/kg/day, combination at respective doses, control 1.2 g",0.70 g
same,"21 day surv., solid tumor model","solid tumor (EAT cells); Experiment 2, 23 days, OC-5186 1 mg/kg/day, combination, control 25%",40%
same,"Av. Surv., solid tumor model","solid tumor (EAT cells); Experiment 2, 23 days, OC-5186 1 mg/kg/day, combination, control 23.2 days",26 days
same,"21 day survival, EAT model","[1]; Experiment 1, day 4 to day 13, OC-5186 10 mg/kg/day, combination at respective doses, control 25%",40%
same,"Average survival, EAT model","[1]; Experiment 1, day 4 to day 13, OC-5186 10 mg/kg/day, combination at respective doses, control 17.0 days",20.3 days
same,"21 day survival, EAT model","[1]; Experiment 2, 23 days, OC-5186 1 mg/kg/day, combination, control 0%",40%
same,"Average survival, EAT model","[1]; Experiment 2, 23 days, OC-5186 1 mg/kg/day, combination, control 15.3 days",20.3 days
O=C1O[C@H]([C@@H](O)CO)C(O)=C1O [Ascorbic acid],inhibition of growth of P. falciparum (in words),[2],did not inhibit the growth
same,survival after ischemia,brain ischemia,had no effect
same,inhibition of formation of irreversibly denatured cells (in words),sickle red blood cells,did not inhibit the formation
CCCCC[C@H](O)/C=C/C1=C(C/C=C\CCCC(=O)OC[C@H](O)[C@H]2OC(=O)C(O)=C2O)C(=O)CC1 [OC-5181],anti-oxidant activity,[3],strong anti-oxidant activity
same,inhibition of TBAR production / antioxidant activity in vitro,[4],"antioxidant activity comparable to free acid type prostaglandin oligomers, OC-2186"
same,superoxide-induced adenochrome formation (slope of the curve),[5],the slope of the curve decreased
